Data reported in US20230099344A1, “COMPOUNDS AND METHODS FOR THE TARGETED DEGRADATION OF IRAK-4” (Arvinas Operations, Inc., priority 2021, published 2023).

Key:
[1] = target: T1, IRAK-4 (Homo sapiens, UniProt Q9NWZ3); assay: IRAK-4 ELISA, OCI-Ly10 degradation; type: cell-based; design: endogenous in cells; conditions: treated overnight; for Dmax: OCI-Ly10, OCI-Ly10 cells
T1 sequence (Q9NWZ3 1-460): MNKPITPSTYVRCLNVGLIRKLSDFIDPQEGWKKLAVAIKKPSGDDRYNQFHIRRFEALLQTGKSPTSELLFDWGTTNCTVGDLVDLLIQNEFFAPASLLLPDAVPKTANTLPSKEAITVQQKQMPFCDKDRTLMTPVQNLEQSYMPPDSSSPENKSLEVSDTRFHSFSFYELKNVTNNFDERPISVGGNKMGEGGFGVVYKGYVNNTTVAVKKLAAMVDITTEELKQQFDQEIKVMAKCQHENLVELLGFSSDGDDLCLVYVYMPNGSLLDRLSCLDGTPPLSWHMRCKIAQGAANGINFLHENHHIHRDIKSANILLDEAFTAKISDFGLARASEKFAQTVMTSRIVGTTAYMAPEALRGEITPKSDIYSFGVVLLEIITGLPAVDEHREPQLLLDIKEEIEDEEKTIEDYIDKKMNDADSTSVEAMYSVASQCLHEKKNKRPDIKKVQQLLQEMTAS
Method: Reagents: Human IRAK-4 Matched Antibody Pair Kit (Abcam ab218182) and ELISA Accessory Pack (Abcam ab210905).
Cell Treatment and Lysis:
1. OCI-Ly10: 200,000 cells are seeded at 1×10^6/ml in 96-well U-bottom plates 200 ul per well, treated with compound the same day. Incubate overnight. 2. PBMC: 800,000 cells are seeded at 2×10^6/ml in 96-well U-bottom deep-well plates, 400 ul per well, treated with compound the same day. Incubate overnight.
Cell lysate is collected and analyzed by ELISA for IRAK-4 levels.

[2] = target: T1, IRAK-4; assay: IRAK-4 ELISA, PBMC degradation; type: cell-based; design: endogenous in cells; host or cells: PBMC; conditions: treated overnight
Method in brief: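 OCI-Ly10 cells (1×10^6/ml) or PBMC (2×10^6/ml) treated with compound on the day of seeding and incubated overnight. IRAK-4 protein remaining in cell lysates quantified by sandwich ELISA.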

Compound	Dmax [1] [%]	DC50 ([1]; OCI-Ly10 cells) [µM]	also measured
O=C1CCC(N2C(=O)c3ccc(N4CCC(F)(CN5CCC(n6cc7cc(NC(=O)c8cnn9cccnc89)c(OCC8CC8)cc7n6)CC5)CC4)cc3C2=O)C(=O)N1 (stereo not shown) [Example 166]	≥ 90	0.01 to 0.05	DC50 [2]: 0.005 to 0.01 µM; Dmax [2]: ≥ 90%; PBMC DC90 [2]: C (C represents a DC90 value ≥25.0 nM and <50 nM)
O=C1CCC(N2C(=O)c3ccc(N4CCN(CCN5CCC([C@H](F)CN6Cc7cc(NC(=O)c8cnn9cccnc89)c(N8CCOCC8)cc7C6=O)CC5)CC4)cc3C2=O)C(=O)N1 (stereo partly shown) [Example 93]	≥ 90	0.01 to 0.05	DC50 [2]: < 0.001 µM; Dmax [2]: ≥ 90%; PBMC DC90 [2]: A (A represents a DC90 value <10.0 nM)
O=C1CCC(N2C(=O)c3ccc(N4CCN(CCOC[C@H](F)Cn5cc6cc(NC(=O)c7cnn8cccnc78)c(OCC7CC7)cc6n5)CC4)cc3C2=O)C(=O)N1 (stereo partly shown) [Example 180]	≥ 90	0.01 to 0.05	
COc1cc2nn(C3CCN(CC4CN(c5ccc6c(c5)C(=O)N(C5CCC(=O)NC5=O)C6=O)C4)CC3)cc2cc1NC(=O)c1cnn2cc(Cl)cnc12 (stereo not shown) [Example 203]	≥ 90	< 0.01	
COc1cc2nn([C@H]3CC[C@@H](N(C)C4CN(c5ccc6c(c5)C(=O)N(C5CCC(=O)NC5=O)C6=O)C4)CC3)cc2cc1NC(=O)c1cnn2cccnc12 (stereo partly shown) [Example 333]		≥ 0.1	
COc1cc2nn(C3CCN(CC4CN(c5ccc(C(=O)NC6CCC(=O)NC6=O)c(F)c5)C4)CC3)cc2cc1NC(=O)c1cnn2cccnc12 (stereo not shown) [Example 294]	80 to 90	0.01 to 0.05	
O=C1CCC(N2C(=O)c3ccc(OCCN4CCC(n5cc6cc(NC(=O)c7cnn8cccnc78)c(OCC7CC7)cc6n5)CC4)cc3C2=O)C(=O)N1 (stereo not shown) [Example 125]	70 to 80	0.01 to 0.05	
O=C1CCC(NC(=O)c2ccc(N3CCC(CN4CCC(n5cc6cc(NC(=O)c7cnn8cccnc78)c(OCC7CC7)cc6n5)CC4)CC3)cc2F)C(=O)N1 (stereo not shown) [Example 290]		0.05 to 0.1	OCI-LY10 Dmax ([1]; OCI-Ly10 cells): D (D represents a Dmax value <70)
O=C1CCC(N2C(=O)c3ccc(C#CCN4CCC(n5cc6cc(NC(=O)c7cnn8cccnc78)c(OCC7CC7)cc6n5)CC4)cc3C2=O)C(=O)N1 (stereo not shown) [Example 178]	80 to 90	≥ 0.1	
CC(C)Oc1cc2c(cc1NC(=O)c1cnn3cccnc13)CN(C1CCN(CCc3ccc4c(c3)C(=O)N(C3CCC(=O)NC3=O)C4=O)CC1)C2=O (stereo not shown) [Example 7]	80 to 90	0.01 to 0.05	
COc1cc2nn(C3CCN(CC4CCN(c5ccc6c(c5)C(=O)N(C5CCC(=O)NC5=O)C6=O)CC4)CC3)cc2cc1NC(=O)c1cnn2cccnc12 (stereo not shown) [Example 201]	≥ 90	< 0.01	
O=C1CCC(N2C(=O)c3ccc(N4CCC(COC[C@H](F)Cn5cc6cc(NC(=O)c7cnn8cccnc78)c(OCC7CC7)cc6n5)CC4)cc3C2=O)C(=O)N1 (stereo partly shown) [Example 181]	80 to 90	≥ 0.1	
COc1cc2nn(C3CCN(C4CN(c5ccc6c(c5)C(=O)N(C5CCC(=O)NC5=O)C6=O)C4)CC3)cc2cc1NC(=O)c1cnn2cccnc12 (stereo not shown) [Example 205]	80 to 90	< 0.01	
O=C1CCC(N2Cc3cc(N4CC(CN5CCC(N6Cc7cc(NC(=O)c8cnn9cccnc89)c(N8CCOCC8)cc7C6=O)CC5)C4)ccc3C2=O)C(=O)N1 (stereo not shown) [Example 34]		≥ 0.1	
COc1cc2nn(C3CCN(CC4CCN(c5ccc6c(c5)C(=O)N(C5CCC(=O)NC5=O)C6=O)CC4)C3)cc2cc1NC(=O)c1cnn2cccnc12 (stereo not shown) [Example 210]		≥ 0.1	
O=C1CCC(N2C(=O)c3ccc(N4CCC(CN5CCC(N6Cc7cc(NC(=O)c8cnn9cc(Cl)cnc89)c(N8CCOCC8)cc7C6=O)CC5)CC4)cc3C2=O)C(=O)N1 (stereo not shown) [Example 33]	80 to 90	0.01 to 0.05	
O=C1CCC(N2Cc3cc(N4CCC(CN5CCC(n6cc7cc(NC(=O)c8cnn9cccnc89)c(C8CC8)cc7n6)CC5)CC4)ccc3C2=O)C(=O)N1 (stereo not shown) [Example 135]	80 to 90	< 0.01	

Compound	Dmax [1] [%]	DC50 ([1]; OCI-Ly10 cells) [µM]	also measured
COc1cc2nn(C3CCN(CC#Cc4ccc5c(c4)C(=O)N(C4CCC(=O)NC4=O)C5=O)CC3)cc2cc1NC(=O)c1cnn2cccnc12 (stereo not shown) [Example 204]	< 70	0.05 to 0.1	
CC(C)Oc1cc2c(cc1NC(=O)c1cnn3cccnc13)CN(C1CCN(Cc3ccc4c(c3)CN(C3CCC(=O)NC3=O)C4=O)CC1)C2=O (stereo not shown) [Example 10]		≥ 0.1	
CC1(CN2CCC(n3cc4cc(NC(=O)c5cnn6cccnc56)c(OCC5CC5)cc4n3)CC2)CN(c2ccc3c(c2)C(=O)N(C2CCC(=O)NC2=O)C3=O)C1 (stereo not shown) [Example 168]	≥ 90	0.01 to 0.05	
CC(C)(O)c1cc2nn(C3CCN(CC4CN(c5ccc6c(c5)C(=O)N(C5CCC(=O)NC5=O)C6=O)C4)CC3)cc2cc1NC(=O)c1cnn2cccnc12 (stereo not shown) [Example 392]	70 to 80	0.05 to 0.1	
O=C1CCC(N2C(=O)c3ccc(N4CC(CN5CCC(n6cc7cc(NC(=O)c8cnn9cccnc89)c(OCC8CC8)cc7n6)CC5)C4)cc3C2=O)C(=O)N1 (stereo not shown) [Example 162]	≥ 90	< 0.01	
O=C1CCC(N2Cc3cc(N4CCC(CN5CCC(n6cc7cc(NC(=O)c8cnn9cccnc89)c(OCC8CC8)cc7n6)CC5)CC4)ccc3C2=O)C(=O)N1 (stereo not shown) [Example 118, N-(6-(cyclopropylmethoxy)-2-(1-((1-(2-(2,6-dioxopiperidin-3-yl)-1-oxoisoindolin-5-yl)piperidin-4-yl)methyl)piperidin-4-yl)-2H-indazol-5-yl)pyrazolo[1,5-a]pyrimidine-3-carboxamide]	≥ 90	< 0.01	
O=C1CCC(N2Cc3cc(N4CCN(CCN5CCC(n6cc7cc(NC(=O)c8cnn9cccnc89)c(OCC8CC8)cc7n6)CC5)CC4)ccc3C2=O)C(=O)N1 (stereo not shown) [Example 160, N-(6-(cyclopropylmethoxy)-2-(1-(2-(4-(2-(2,6-dioxopiperidin-3-yl)-1-oxoisoindolin-5-yl)piperazin-1-yl)ethyl)piperidin-4-yl)-2H-indazol-5-yl)pyrazolo[1,5-a]pyrimidine-3-carboxamide]	≥ 90	< 0.01	
COc1cc2nn(C[C@@H](F)COCC3CCN(c4ccc5c(c4)C(=O)N(C4CCC(=O)NC4=O)C5=O)CC3)cc2cc1NC(=O)c1cnn2cccnc12 (stereo partly shown) [Example 213]	< 70	≥ 0.1	
COc1cc2nn([C@H]3CC[C@@H](OC4CN(c5ccc6c(c5)C(=O)N(C5CCC(=O)NC5=O)C6=O)C4)CC3)cc2cc1NC(=O)c1cnn2cccnc12 (stereo partly shown) [Example 211]		≥ 0.1	
O=C1CCC(N2Cc3cc(N4CCC(CN5CCC(n6cc7cc(NC(=O)c8cnn9cc(Cl)cnc89)c(OCC8CC8)cc7n6)CC5)CC4)ccc3C2=O)C(=O)N1 (stereo not shown) [Example 129]	80 to 90	< 0.01	
COc1cc2nn(C3CCN(CCc4ccc5c(c4)C(=O)N(C4CCC(=O)NC4=O)C5=O)CC3)cc2cc1NC(=O)c1cnn2cccnc12 (stereo not shown) [Example 144]		≥ 0.1	
O=C1CCC(N2C(=O)c3ccc(N4CC(N5CCC(n6cc7cc(NC(=O)c8cnn9cccnc89)c(OCC8CC8)cc7n6)CC5)C4)cc3C2=O)C(=O)N1 (stereo not shown) [Example 163]	≥ 90	0.01 to 0.05	
O=C1CCC(N2C(=O)c3ccc(CCN4CCC(N5Cc6cc(NC(=O)c7cnn8cccnc78)c(N7CCOCC7)cc6C5=O)CC4)cc3C2=O)C(=O)N1 (stereo not shown) [Example 37]		≥ 0.1	
COc1cc2nn(C3CCN(C(C)(C)C4CN(c5ccc6c(c5)C(=O)N(C5CCC(=O)NC5=O)C6=O)C4)CC3)cc2cc1NC(=O)c1cnn2cccnc12 (stereo not shown) [Example 206]	≥ 90	< 0.01	
CC(C)Oc1cc2c(cc1NC(=O)c1cnn3cccnc13)CN(CC1CN(CCc3ccc4c(c3)CN(C3CCC(=O)NC3=O)C4=O)C1)C2=O (stereo not shown) [Example 26]		≥ 0.1	
COc1cc2nn([C@H]3CCN(CC4CCN(c5ccc6c(c5)CN(C5CCC(=O)NC5=O)C6=O)CC4)C[C@@H]3F)cc2cc1NC(=O)c1cnn2cccnc12 (stereo partly shown) [Example 145]	≥ 90	0.01 to 0.05	
